We go through 1 compound from PMC3152581 (Journal of natural products, 2010).

The test has as its target BACE1 (memapsin-2) (Homo sapiens, UniProt P56817). Kind of test: BACE1 assay. In kind it is biochemical. Particulars: biological screening; result in words.

Chain of BACE1 (memapsin-2) (P56817 46-501): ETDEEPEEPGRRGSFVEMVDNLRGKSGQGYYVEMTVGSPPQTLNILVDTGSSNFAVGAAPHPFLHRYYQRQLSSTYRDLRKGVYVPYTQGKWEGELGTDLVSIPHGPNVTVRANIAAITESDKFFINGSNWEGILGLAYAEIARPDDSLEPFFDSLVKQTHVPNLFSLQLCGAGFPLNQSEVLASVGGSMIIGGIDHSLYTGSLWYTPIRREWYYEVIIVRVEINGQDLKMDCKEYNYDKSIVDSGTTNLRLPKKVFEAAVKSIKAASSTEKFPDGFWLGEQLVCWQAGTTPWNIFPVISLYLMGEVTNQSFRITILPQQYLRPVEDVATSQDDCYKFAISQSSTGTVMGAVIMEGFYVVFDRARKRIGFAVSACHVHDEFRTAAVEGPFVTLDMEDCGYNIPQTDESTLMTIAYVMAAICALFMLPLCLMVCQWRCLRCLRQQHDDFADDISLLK

Turning to `C[C@@]12CC[C@H](O)[C@@H]3COC(=C31)C(=O)c1cc3c(OCCO)cccc3cc12` [Compound 1, Xestosaprol F], the “Inhibition of BACE1 (in words)” value was “significantly less active”.
